In PubChem BioAssay (NCI) one finds GI50 and TGI data, which are given here for 17 molecules.

Each structure is given as a SMILES string.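 Values below derive from 48-hour exposures of cells grown in 96-well plates, with endpoints linearly interpolated between the two concentrations bracketing the appropriate inhibition level. Abbreviation: GI50, concentration required for 50% inhibition of growth. TGI: total growth inhibition.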

Some test systems named below: DU-145 prostate; HS 578T breast; MCF7 breast; MDA-MB-231 breast; LXFL 529 NSCLC; DLD-1 colon; M19-MEL melanoma; DMS 114 small cell lung; KM20L2 colon; DMS 273 small cell lung.
Holding throughout (experiment): NCI anticancer screen, dose series, 48 h

With `COc1cccc(-n2ncc3c(N/N=C/c4ccc(C(=O)NCCN(C)C)cc4)ncnc32)c1`, the GI50 in the assay on DU-145 prostate is 3.18 µM; in the assay on HS 578T breast, 0.57 µM; in the assay on MCF7 breast, 3.02 µM; in the assay on MDA-MB-231 breast, 3.4 µM. Further, the TGI in the assay with DU-145 prostate is 6.57 µM; in the assay with HS 578T breast, 6 µM; in the assay on MCF7 breast it was 6.82 µM; with MDA-MB-231 breast, 7.23 µM.

Take `CC1(C)CC(=O)c2c(C(F)(F)F)nn(-c3ccc(C(N)=O)c(NC4CCC(OC(=O)CN)CC4)c3)c2C1` (stereo not drawn): the GI50 in the assay on DU-145 prostate was 0.0883 µM; with HS 578T breast, 9.73 µM; in the assay with MCF7 breast, less than 0.0183 µM; in the assay with MDA-MB-231 breast, 0.112 µM. For the same molecule, the TGI was more than 100 µM in the assay on DU-145 prostate, more than 100 µM in the assay on HS 578T breast, more than 100 µM in the assay on MCF7 breast and 31.5 µM in the assay with MDA-MB-231 breast.

Take `O=C1CC(c2ccc(O)cc2)C2(O1)C(=O)OC(C(O)CO)C2O` (stereo not drawn): the TGI in the assay with DU-145 prostate, with HS 578T breast, with MCF7 breast and with MDA-MB-231 breast was more than 100 µM each time.

In the case of `Cc1ccccc1[P+](Cc1ccccc1)(c1ccccc1)c1ccccc1`, the GI50 in the assay with DU-145 prostate is 3.69 µM; in the assay on HS 578T breast, 1.83 µM; in the assay with MCF7 breast, 0.89 µM; in the assay on MDA-MB-231 breast, 2.06 µM. For the same molecule, the TGI with DU-145 prostate was more than 100 µM; in the assay with HS 578T breast it was 11.7 µM; with MCF7 breast, more than 100 µM; with MDA-MB-231 breast, 28 µM.

In the case of `COc1cc(C2CC(c3ccc4c(c3)OCO4)=NN2C=O)cc(OC)c1OC` (stereo not drawn), the GI50 with DU-145 prostate was 2.63 µM; with HS 578T breast it was 2.43 µM; in the assay with MCF7 breast, 1.34 µM; in the assay on MDA-MB-231 breast, more than 25.3 µM. Besides, the TGI in the assay with DU-145 prostate was more than 26.1 µM; in the assay on HS 578T breast, 28.5 µM; in the assay on MCF7 breast it was more than 100 µM; with MDA-MB-231 breast it was more than 100 µM.

On to `COC(=O)[C@H](C[C@H](Cc1ccccc1)NC(=O)c1csc([C@@H](C[C@H](C(C)C)N(C)C(=O)[C@@H](NC(=O)[C@H]2CCCCN2C)C(C)C)OC(C)=O)n1)NC(=O)OCc1ccccc1`, for which the GI50 in the assay with DU-145 prostate is less than 0.0009 µM; in the assay with HS 578T breast it was less than 0.0009 µM; in the assay with MCF7 breast, less than 0.0009 µM; with MDA-MB-231 breast it was 0.00108 µM. For the same molecule, the TGI in the assay with DU-145 prostate was 1.31 µM; in the assay with HS 578T breast, more than 4.93 µM; in the assay on MCF7 breast, more than 9 µM; with MDA-MB-231 breast it was more than 4.9 µM.

Turning to `COC(C(=O)[O][Ge]([CH3])([CH3])[CH3])c1ccccc1` (stereo not drawn), the GI50 in the assay with LXFL 529 NSCLC, in the assay with DLD-1 colon, in the assay with M19-MEL melanoma, in the assay on DMS 114 small cell lung and with KM20L2 colon was more than 100 µM throughout. For the same molecule, the TGI in the assay with LXFL 529 NSCLC, with DLD-1 colon, in the assay on M19-MEL melanoma, in the assay with DMS 114 small cell lung and with KM20L2 colon was more than 100 µM in each case.

`COc1cc(OC(C)=O)cc2c(OC(C)=O)ccc(OC(C)=O)c12`: the TGI with LXFL 529 NSCLC and with KM20L2 colon was more than 100 µM in each case.

Regarding `Nc1ccccc1C#C/C=C\C#Cc1cccs1`, the GI50 is 10.2 µM with DU-145 prostate, 15.2 µM with HS 578T breast and 2.34 µM in the assay with MCF7 breast. Moreover, the TGI in the assay on DU-145 prostate was 31.6 µM; in the assay with HS 578T breast it was 41.8 µM; in the assay with MCF7 breast it was more than 100 µM; in the assay on MDA-MB-231 breast, 4.47 µM.

`COc1ccc2c(c1)cn1c3ccc(O)cc3nc(N)c21`: the GI50 in the assay on DU-145 prostate is 0.24 µM; in the assay on HS 578T breast, 1.48 µM; in the assay on MCF7 breast, 0.615 µM; in the assay with MDA-MB-231 breast it was 0.957 µM. The TGI came out at 5.43 µM in the assay with DU-145 prostate, 33.4 µM in the assay with HS 578T breast, 4.99 µM in the assay on MCF7 breast and 5.56 µM with MDA-MB-231 breast.

`OC(c1cc(-c2ccccc2)nc2ccc(Cl)cc12)C1CCCCN1` (stereo not drawn): the GI50 in the assay with DU-145 prostate is 3.07 µM; in the assay on HS 578T breast, 3.37 µM; in the assay with MCF7 breast, 1.67 µM; with MDA-MB-231 breast, 1.78 µM. Further, the TGI stood at 8.74 µM in the assay with DU-145 prostate, 11.7 µM with HS 578T breast, 3.14 µM in the assay with MCF7 breast and 3.94 µM in the assay on MDA-MB-231 breast.

Regarding `CC#C[C@]1(O)CC[C@H]2[C@@H]3CCC4=CC(=O)CCC4=C3[C@@H](c3ccc4c(c3)OCO4)C[C@@]21C`, the GI50 was 138 µM in the assay on DU-145 prostate, 101 µM in the assay on HS 578T breast, 77.2 µM with MCF7 breast and 90.1 µM in the assay on MDA-MB-231 breast. The TGI with DU-145 prostate is 391 µM; in the assay with HS 578T breast, 537 µM; with MCF7 breast it was more than 1000 µM; with MDA-MB-231 breast, 327 µM.

Consider `COc1ccc(OC)c(/C=C2\SC(=S)NC2=O)c1`, for which the GI50 was 20 µM in the assay on DU-145 prostate, 20.7 µM with HS 578T breast, 23.5 µM in the assay on MCF7 breast and 14.2 µM in the assay on MDA-MB-231 breast. Further, the TGI with DU-145 prostate is 74.3 µM; in the assay on HS 578T breast, 55.5 µM; with MCF7 breast, more than 100 µM; in the assay with MDA-MB-231 breast it was 43.2 µM.

As to `O=c1cc(-c2ccccc2)[nH]c2ccccc12`, the GI50 in the assay on DU-145 prostate is 0.829 µM; in the assay with HS 578T breast, 0.458 µM; with MCF7 breast, 0.383 µM; in the assay on MDA-MB-231 breast, 4.09 µM. Further, the TGI was more than 71.4 µM with DU-145 prostate, more than 23.2 µM in the assay with HS 578T breast, more than 100 µM in the assay on MCF7 breast and more than 62.1 µM with MDA-MB-231 breast.

`CCN(CC)c1ccc(C(=O)c2ccccc2C(=O)O)c(O)c1`: the TGI in the assay on LXFL 529 NSCLC, in the assay on M19-MEL melanoma, in the assay on DMS 114 small cell lung and with DMS 273 small cell lung was more than 100 µM throughout.

Regarding `COc1cc2c(c(OC)c1)C1c3ccccc3NC(=O)N1CC2` (stereo not drawn), the GI50 was 4.84 µM with DU-145 prostate, 6.3 µM in the assay with HS 578T breast, 3.13 µM in the assay with MCF7 breast and 3.98 µM in the assay with MDA-MB-231 breast. In addition, the TGI with DU-145 prostate, in the assay with HS 578T breast, in the assay with MCF7 breast and in the assay on MDA-MB-231 breast was more than 100 µM throughout.

Turning to `O=C1c2cccnc2C(=O)c2nc3cc(N4CCN(C5CC5)CC4)ccc3nc21`, the GI50 in the assay with DU-145 prostate was 0.242 µM; with HS 578T breast it was 0.37 µM; in the assay with MCF7 breast, 0.276 µM; in the assay on MDA-MB-231 breast it was 2.15 µM. Moreover, the TGI in the assay with DU-145 prostate was determined as 0.833 µM; in the assay with HS 578T breast it was 3.18 µM; in the assay with MCF7 breast it was 1.78 µM; in the assay with MDA-MB-231 breast, 8.08 µM.
